Measured values as given in patent publication US7576215B2, “Quinolines and pharmaceutical compositions thereof” (Wyeth, priority 2003, dated 2009).

## Cc1ccc(NC(=O)c2cnc3c(C(F)(F)F)cccc3c2-c2ccccc2)cc1 [Example 368, N-(4-METHYLPHENYL)-4-PHENYL-8-(TRIFLUOROMETHYL)QUINOLINE-3-CARBOXAMIDE]
  melting point: 203 to 205 °C
